Laboratory results published in patent US20020137929A1, “1 - (3-heterocyclylphenyl) isothiourea, -isourea, -guanidine and -amidine herbicidal agents” (Intellectual Property Department, BASF Aktiengesellschaft, priority 1998, published 2002).

Assays:
[1] = test system: SAGPY (Arrowhead (Pygmaea)); test: Preemergence weed control under flooded paddy conditions; type: in vivo, Sagittaria pygmaea; settings: rated 3-4 weeks after treatment
In short: (§1)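 Seeds or propagules sown in silt loam kept flooded 1.5-3 cm; compounds in 50/50 acetone/water pipetted into flood water at about 0.0313 to 0.500 kg/ha. Greenhouse; visual 0-9 rating versus untreated control 3-4 weeks after treatment.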

[2] = test system: IPOHE (Morningglory, Ivyleaf); test: Postemergence herbicidal evaluation; type: in vivo, Ipomoea hederacea; settings: postemergence
In short: (§2)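 Scores (0–9) reflect plant stand, vigor, malformation, size, chlorosis and general appearance relative to control, read 4 to 5 weeks after treatment and averaged where tests were repeated. Application: about 0.0156–0.500 kg/ha sprayed at 40 psi onto two-week seedlings.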

CYPSE (Flatsedge) = test: Preemergence weed control under flooded paddy conditions; type: in vivo, Cyperus serotinus; settings: rated 3-4 weeks after treatment
In short: as §1

ZEAMX (Corn, Field) = test: Postemergence herbicidal evaluation; type: in vivo, Zea mays; settings: postemergence
In short: as §2

[3] = test system: ECHORC (Watergrass (Calif.)); test: Postemergence weed control under flooded paddy conditions; type: in vivo, Echinochloa oryzoides; settings: postemergence weeds, 3-4 weeks after treatment
In short: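 With weeds 3 to 5 cm tall and rice at the 1.5 to 2.5 leaf stage, containers were flooded and water held 1.5 to 3 cm above soil. Compounds in 50/50 v/v aqueous/acetone went into the flood water at about 0.0313 to 0.500 kg/ha a.i. Effects were visually rated 0–9 against controls after three to four weeks in the greenhouse.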

[4] = test system: GLXMAW (Soybean, Williams); test: Preemergence herbicidal evaluation; type: in vivo, Glycine max, (L.) Merr. cv Williams; settings: rated 4-5 weeks after treatment
In short: (§3)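 In this greenhouse assay, monocot and dicot seeds are planted in soil and treated prior to emergence with an aqueous acetone spray (about 0.0156-0.500 kg/ha). Plants are assessed visually against control on a 0-9 scale after 4-5 weeks.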

AMBEL (Ragweed, Common) [5] = test: Postemergence herbicidal evaluation; type: in vivo, Ambrosia artemisifolia; settings: postemergence
In short: as §2

ABUTH (Velvetleaf) = test: Preemergence herbicidal evaluation; type: in vivo, Abutilon theophrasti; settings: rated 4-5 weeks after treatment
In short: as §3

ECHCG (Barnyardgrass) = test: Preemergence herbicidal evaluation; type: in vivo, Echinochloa crus-galli; settings: rated 4-5 weeks after treatment
In short: as §3

SETVI (Foxtail, Green) = test: Preemergence herbicidal evaluation; type: in vivo, Setaria viridis; settings: rated 4-5 weeks after treatment
In short: as §3

[6] = test system: GLXMAW (Soybean, Williams); test: Postemergence herbicidal evaluation; type: in vivo, Glycine max, (L.) Merr. cv Williams; settings: postemergence
In short: as §2

CASOB (Sicklepod) = test: Preemergence herbicidal evaluation; type: in vivo, Cassia obtusifolia; settings: rated 4-5 weeks after treatment
In short: as §3

GALAP (Galium) = test: Preemergence herbicidal evaluation; type: in vivo, Galium aparine; settings: rated 4-5 weeks after treatment
In short: as §3

AMBEL (Ragweed, Common) [7] = test: Preemergence herbicidal evaluation; type: in vivo, Ambrosia artemisifolia; settings: rated 4-5 weeks after treatment
In short: as §3

CCOC(=O)CN1C(=O)C(CC)SC1=Nc1cc(-n2c(=O)cc(C(F)(F)F)n(C)c2=O)c(F)cc1Cl (centres unmarked) [Compound 13, Ethyl 2-{{2-chloro-5-[3,6-dihydro-3-methyl-2,6-dioxo-4-(trifluoromethyl)-1(2H)-pyrimidinyl]-4-fluorophenyl}imino}-5-ethyl-4-oxo-3-thiazolidineacetate]
9.0: IPOHE herbicidal rating ([2]; rate 0.0156 kg/ha) | IPOHE herbicidal rating ([2]; rate 0.0313 kg/ha) | IPOHE herbicidal rating ([2]; rate 0.0625 kg/ha) | IPOHE herbicidal rating ([2]; rate 0.1250 kg/ha) | Herbicidal rating ECHORC ([3]; rate 0.2500 kg/ha) | AMBEL herbicidal rating (AMBEL (Ragweed, Common) [5]; rate 0.0313 kg/ha) | AMBEL herbicidal rating (AMBEL (Ragweed, Common) [5]; rate 0.0625 kg/ha) | AMBEL herbicidal rating (AMBEL (Ragweed, Common) [5]; rate 0.1250 kg/ha) | ABUTH preemergence herbicidal rating (ABUTH (Velvetleaf); rate 0.0313 kg/ha) | ABUTH preemergence herbicidal rating (ABUTH (Velvetleaf); rate 0.0625 kg/ha) | ABUTH preemergence herbicidal rating (ABUTH (Velvetleaf); rate 0.1250 kg/ha) | ABUTH preemergence herbicidal rating (ABUTH (Velvetleaf); rate 0.2500 kg/ha) | SETVI preemergence herbicidal rating (SETVI (Foxtail, Green); rate 0.0625 kg/ha) | SETVI preemergence herbicidal rating (SETVI (Foxtail, Green); rate 0.1250 kg/ha) | SETVI preemergence herbicidal rating (SETVI (Foxtail, Green); rate 0.2500 kg/ha) | AMBEL preemergence herbicidal rating (AMBEL (Ragweed, Common) [7]; rate 0.1250 kg/ha) | AMBEL preemergence herbicidal rating (AMBEL (Ragweed, Common) [7]; rate 0.2500 kg/ha)
3.0: CASOB preemergence herbicidal rating (CASOB (Sicklepod); rate 0.2500 kg/ha)
4.0: GLXMAW preemergence herbicidal rating ([4]; rate 0.2500 kg/ha)
5.5: Herbicidal rating ECHORC ([3]; rate 0.0313 kg/ha) | GLXMAW herbicidal rating ([6]; rate 0.0313 kg/ha) | GLXMAW herbicidal rating ([6]; rate 0.0625 kg/ha)
2.5: SETVI preemergence herbicidal rating (SETVI (Foxtail, Green); rate 0.0156 kg/ha)
7.0: ZEAMX herbicidal rating (ZEAMX (Corn, Field); rate 0.0156 kg/ha) | ZEAMX herbicidal rating (ZEAMX (Corn, Field); rate 0.0313 kg/ha) | Herbicidal rating ECHORC ([3]; rate 0.0625 kg/ha) | AMBEL herbicidal rating (AMBEL (Ragweed, Common) [5]; rate 0.0156 kg/ha) | ECHCG preemergence herbicidal rating (ECHCG (Barnyardgrass); rate 0.1250 kg/ha)
4.5: SETVI preemergence herbicidal rating (SETVI (Foxtail, Green); rate 0.0313 kg/ha)
7.5: ZEAMX herbicidal rating (ZEAMX (Corn, Field); rate 0.0625 kg/ha) | GLXMAW herbicidal rating ([6]; rate 0.1250 kg/ha)
6.0: ABUTH preemergence herbicidal rating (ABUTH (Velvetleaf); rate 0.0156 kg/ha) | AMBEL preemergence herbicidal rating (AMBEL (Ragweed, Common) [7]; rate 0.0625 kg/ha)
5.0: GLXMAW herbicidal rating ([6]; rate 0.0156 kg/ha)
8.0: ZEAMX herbicidal rating (ZEAMX (Corn, Field); rate 0.1250 kg/ha) | Herbicidal rating ECHORC ([3]; rate 0.1250 kg/ha) | ECHCG preemergence herbicidal rating (ECHCG (Barnyardgrass); rate 0.2500 kg/ha)
2.0: GLXMAW preemergence herbicidal rating ([4]; rate 0.1250 kg/ha) | AMBEL preemergence herbicidal rating (AMBEL (Ragweed, Common) [7]; rate 0.0313 kg/ha)
0.0: Herbicidal rating SAGPY ([1]; 0.0156 kg/ha) | Herbicidal rating SAGPY ([1]; 0.0313 kg/ha) | Herbicidal rating SAGPY ([1]; 0.0625 kg/ha) | Herbicidal rating SAGPY ([1]; 0.1250 kg/ha) | Herbicidal rating SAGPY ([1]; 0.2500 kg/ha) | Herbicidal rating CYPSE (CYPSE (Flatsedge); 0.0156 kg/ha) | Herbicidal rating CYPSE (CYPSE (Flatsedge); 0.0313 kg/ha) | Herbicidal rating CYPSE (CYPSE (Flatsedge); 0.0625 kg/ha) | Herbicidal rating CYPSE (CYPSE (Flatsedge); 0.1250 kg/ha) | Herbicidal rating CYPSE (CYPSE (Flatsedge); 0.2500 kg/ha) | GLXMAW preemergence herbicidal rating ([4]; rate 0.0156 kg/ha) | GLXMAW preemergence herbicidal rating ([4]; rate 0.0313 kg/ha) | ECHCG preemergence herbicidal rating (ECHCG (Barnyardgrass); rate 0.0156 kg/ha) | ECHCG preemergence herbicidal rating (ECHCG (Barnyardgrass); rate 0.0313 kg/ha) | CASOB preemergence herbicidal rating (CASOB (Sicklepod); rate 0.0156 kg/ha) | CASOB preemergence herbicidal rating (CASOB (Sicklepod); rate 0.0313 kg/ha) | CASOB preemergence herbicidal rating (CASOB (Sicklepod); rate 0.0625 kg/ha) | GALAP preemergence herbicidal rating (GALAP (Galium); rate 0.0156 kg/ha) | GALAP preemergence herbicidal rating (GALAP (Galium); rate 0.0313 kg/ha) | GALAP preemergence herbicidal rating (GALAP (Galium); rate 0.0625 kg/ha) | GALAP preemergence herbicidal rating (GALAP (Galium); rate 0.1250 kg/ha) | GALAP preemergence herbicidal rating (GALAP (Galium); rate 0.2500 kg/ha) | AMBEL preemergence herbicidal rating (AMBEL (Ragweed, Common) [7]; rate 0.0156 kg/ha)
1.0: GLXMAW preemergence herbicidal rating ([4]; rate 0.0625 kg/ha) | ECHCG preemergence herbicidal rating (ECHCG (Barnyardgrass); rate 0.0625 kg/ha) | CASOB preemergence herbicidal rating (CASOB (Sicklepod); rate 0.1250 kg/ha)
